Data as given in patent US7572438B2, “Mutant having uracil phosphoribosyl transferase activity” (Transgene S.A., priority 1998, dated 2009).

How the values were obtained:
SK-BR-3 = assay: LD50 of 5-FC and 5-FU on adenovirus-infected SK-BR-3 cells (MOI 5); assay type: cell-based, human; settings: SK-BR-3, mock-infected, 6 days
Description: (§1) The LD50 values for 5-FC and 5-FU are determined vis-a-vis the three human tumor cell lines infected with the different viruses (Ad null, Ad.CMV-FCY1, Ad.CMV-FUR1A1Δ105 and Ad.CMV-FCU1) or coinfected with the adenoviruses expressing the FCY1 and FUR1Δ105 genes. The cells are infected at an MOI of 5 and then cultured in the presence of different concentrations of 5-FC and 5-FU. After 6 days of culture, the viability of the cells is determined using trypan blue. The LD50 values listed in Table 6 are the means of four counts.

SW480 = assay: LD50 of 5-FC and 5-FU on adenovirus-infected SW480 cells (MOI 5); assay type: cell-based, human; settings: 6 days
Description: as §1

PANC-1 = assay: LD50 of 5-FC and 5-FU on adenovirus-infected PANC-1 cells (MOI 5); assay type: cell-based, human; settings: PANC-1, mock-infected, 6 days
Description: as §1

B16(F0) cells [1] = assay: Sensitivity of transfected B16(F0) clones to 5-FC and 5-FU (LD50, trypan blue); assay type: cell-based, mouse; settings: 6 days with drug
Description: The sensitivities of the different clones to 5-FC and 5-FU are also tested after incubating in the presence of the drugs for 6 days. The following values are the means of four counts (using trypan blue) of cell mortality.

B16(F0) cells [2] = assay: Bystander effect: mixtures of untransfected and pCI-neoFCU1-transfected B16(F0) clones with 5-FC; assay type: cell-based, mouse; settings: B16/B16 pCI-neoFCU1 100%/0%, 4 days
Description: These clone mixtures were then tested in the presence of different concentrations of 5-FC. Cell mortality (using trypan blue) is assessed after culturing for 4 days in the presence of 5-FC.

| Compound | LD50 (μM) 5-FU, Mock (SK-BR-3) [µM] | LD50 (μM) 5-FU, Mock (SW480) [µM] | LD50 (μM) 5-FU, Mock (PANC-1) [µM] | LD50 for 5-FC, untransfected cells (B16(F0) cells [1]) [µM] | LD50 (μM) 5-FC, Mock (SK-BR-3) [µM] | LD50 (μM) 5-FC, Mock (SW480) [µM] | LD50 (μM) 5-FC, Mock (PANC-1) | LD50 (μM) + 5-FC (B16(F0) cells [2]) [µM] |
| --- | --- | --- | --- | --- | --- | --- | --- | --- |
| O=c1[nH]cc(F)c(=O)[nH]1 [5-FU, 5-fluorouracil] | 0.1 | 0.5 | 0.3 | – | – | – | – | – |
| Nc1nc(=O)[nH]cc1F [5-FC, 5-fluorocytosine] | – | – | – | 1000 | 5000 | 5000 | 10,000 μM | 5000 |
